Source: ChEMBL document CHEMBL3259521, “Design, synthesis, and SAR of embelin analogues as the inhibitors of PAI-1 (plasminogen activator inhibitor-1)” (Bioorg Med Chem Lett, 2014)
The source made the active and inactive calls. No cut-off for these calls is given here.

Columns and labels:
[1] = Inhibition of hexa-His-tagged PAI-1 N152H/K156T/Q321L/M356I mutant (unknown origin) expressed in Escherichia coli BL21(DE3) after 10 mins by uPA-based assay; parameters: species or system Homo sapiens
[2] = organism: Homo sapiens; test: Ratio of embelin IC50 to compound IC50 for hexa-His-tagged PAI-1 N152H/K156T/Q321L/M356I mutant (unknown origin) expressed in Escherichia coli BL21(DE3)
[3] = organism: Homo sapiens; test: Inhibition of hexa-His-tagged PAI-1 N152H/K156T/Q321L/M356I mutant (unknown origin) expressed in Escherichia coli BL21(DE3) at 100 uM after 10 mins by uPA-based assay

| Structure (SMILES) | IC50 [1] [nM] | Ratio IC50 [2] | inhibition [3] |
| --- | --- | --- | --- |
| CCCCCCCC1=C(O)C(=O)C=C(O)C1=O | 3870 |  |  |
| CCCCC1=C(O)C(=O)C(CCCC)=C(O)C1=O | 7110 |  |  |
| CCCCCCCCCCCC1=C(O)C(=O)C=C(OC)C1=O [5-O-METHYLEMBELIN] | 90200 |  |  |
| CCCCCCC1=C(O)C(=O)C(CCCCCC)=C(O)C1=O | 580 | 9 |  |
| CCCCCC1=C(O)C(=O)C(CCCCC)=C(O)C1=O | 920 | 5 |  |
| CCCCCCCCCC1=C(O)C(=O)C(CCCCCCC)=C(O)C1=O | 950 | 5 |  |
| CCCCCCCCCC1=C(O)C(=O)C(CCC)=C(O)C1=O | 380 | 13 |  |
| CCCCCC1=C(O)C(=O)C=C(O)C1=O | 4560 |  |  |
| CCCCCCCCCC1=C(O)C(=O)C=C(O)C1=O | 1780 |  |  |
| CCCCCCCCCC1=C(O)C(=O)C(Cc2ccccc2)=C(O)C1=O | 770 | 6.5 |  |
| CCCCCCCCCCCC1=C(OC)C(=O)C=C(OC)C1=O |  |  | inactive |
| CCCCCCCCC1=C(O)C(=O)C=C(O)C1=O | 1870 |  |  |
| CCCCCCCCCCCC1=C(O)C(=O)C=C(O)C1=O [EMBELIN] | 4940 |  |  |
| CCCCCCC1=C(O)C(=O)C=C(O)C1=O | 4180 |  |  |
| CCCCCCCC1=C(O)C(=O)C(CCCCCCC)=C(O)C1=O | 510 | 10 |  |
| CCCCCCCCC1=C(O)C(=O)C(CCCCCCCC)=C(O)C1=O | 890 | 5 |  |
| CCCCCCCCCC1=C(O)C(=O)C(CCCC)=C(O)C1=O | 180 | 27 |  |
| C=CCC1=C(O)C(=O)C(CCCCCCCCC)=C(O)C1=O | 750 | 6.5 |  |
| CCCC1=C(O)C(=O)C(CCC)=C(O)C1=O | 5680 |  |  |
| CCCCCCCCCC1=C(O)C(=O)C(CCCCC)=C(O)C1=O | 630 | 8 |  |
